Data: PubChem BioAssay AID2060485 (Molecular Pharmacology Branch, DTP, NCI, 2025)
pIC50: −log10 of the molar value.

System: A375 multi-cell spheroids with HUVEC/MSC, viability
Test: Anticancer human tumor A375 cell line growth inhibition [GQUAD];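 note: spheroids exposed to compounds for seven days before readout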
Details: for pIC50: curve of first compound; for viability, T/C: stronger effect = lower value
Summary of the method: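 Multi-cell-type spheroids of tumor cells with HUVEC and mesenchymal stem cells, treated with drug combinations. Concentrations descend in half-log steps from near clinical Cmax, or from 10 microM where Cmax is unknown; viability read-out.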

`COc1cc(C2c3cc4c(cc3C(OC3OC5COC(C)OC5C(O)C3O)C3COC(=O)C23)OCO4)cc(OC)c1O` (configuration not stated) + Cc1[nH]c2ccc(F)cc2c1-c1nc2c3cccnc3c3ncccc3c2[nH]1 was tested. Which pIC50 (second compound 0.0316 µM) did it give?
The pIC50 was 5.79.

What about the pIC50 (second compound 0.1 µM) of the same compound?
The pIC50 was 6.00.

What about the pIC50 (second compound 0.316 µM) of the same compound?
Its pIC50 is 5.74.

And the pIC50 (second compound 1 µM)?
Its pIC50 is 5.74.

What about the pIC50 (second compound 3.16 µM) of the same compound?
The pIC50 was 5.89.

And the pIC50 (second compound 10 µM)?
Its pIC50 is 6.01.

And the viability, T/C (second compound 0.0316 µM, first compound 0.0316 µM)?
The viability, T/C was 109%.

And the viability, T/C (second compound 0.0316 µM, first compound 0.1 µM)?
Its viability, T/C is 109%.

And the viability, T/C (second compound 0.0316 µM, first compound 0.316 µM)?
The viability, T/C was 97.6%.

What about the viability, T/C (second compound 0.0316 µM, first compound 1 µM) of the same compound?
The viability, T/C was 59.6%.

What about the viability, T/C (second compound 0.0316 µM, first compound 3.16 µM) of the same compound?
The viability, T/C was 37.6%.

What about the viability, T/C (second compound 0.0316 µM, first compound 10 µM) of the same compound?
The viability, T/C was 26.9%.

And the viability, T/C (second compound 0.1 µM, first compound 0.0316 µM)?
Its viability, T/C is 97.7%.

What about the viability, T/C (second compound 0.1 µM, first compound 0.1 µM) of the same compound?
Its viability, T/C is 134%.

What about the viability, T/C (second compound 0.1 µM, first compound 0.316 µM) of the same compound?
The viability, T/C was 94.8%.

What about the viability, T/C (second compound 0.1 µM, first compound 1 µM) of the same compound?
Its viability, T/C is 51.5%.

What about the viability, T/C (second compound 0.1 µM, first compound 3.16 µM) of the same compound?
The viability, T/C was 33.1%.

What about the viability, T/C (second compound 0.1 µM, first compound 10 µM) of the same compound?
Its viability, T/C is 27.7%.

And the viability, T/C (second compound 0.316 µM, first compound 0.0316 µM)?
The viability, T/C was 101%.

What about the viability, T/C (second compound 0.316 µM, first compound 0.1 µM) of the same compound?
The viability, T/C was 156%.

What about the viability, T/C (second compound 0.316 µM, first compound 0.316 µM) of the same compound?
The viability, T/C was 89.2%.

What about the viability, T/C (second compound 0.316 µM, first compound 1 µM) of the same compound?
Its viability, T/C is 68.2%.

What about the viability, T/C (second compound 0.316 µM, first compound 3.16 µM) of the same compound?
Its viability, T/C is 40.2%.

And the viability, T/C (second compound 0.316 µM, first compound 10 µM)?
The viability, T/C was 26%.

And the viability, T/C (second compound 1 µM, first compound 0.0316 µM)?
Its viability, T/C is 109%.

And the viability, T/C (second compound 1 µM, first compound 0.1 µM)?
The viability, T/C was 130%.

And the viability, T/C (second compound 1 µM, first compound 0.316 µM)?
The viability, T/C was 89.7%.

What about the viability, T/C (second compound 1 µM, first compound 1 µM) of the same compound?
Its viability, T/C is 62.5%.

What about the viability, T/C (second compound 1 µM, first compound 3.16 µM) of the same compound?
Its viability, T/C is 43.2%.

And the viability, T/C (second compound 1 µM, first compound 10 µM)?
The viability, T/C was 29%.

What about the viability, T/C (second compound 3.16 µM, first compound 0.0316 µM) of the same compound?
Its viability, T/C is 69%.

What about the viability, T/C (second compound 3.16 µM, first compound 0.1 µM) of the same compound?
Its viability, T/C is 86.6%.

What about the viability, T/C (second compound 3.16 µM, first compound 0.316 µM) of the same compound?
The viability, T/C was 69.8%.

And the viability, T/C (second compound 3.16 µM, first compound 1 µM)?
The viability, T/C was 51.6%.

What about the viability, T/C (second compound 3.16 µM, first compound 3.16 µM) of the same compound?
Its viability, T/C is 40.2%.

What about the viability, T/C (second compound 3.16 µM, first compound 10 µM) of the same compound?
The viability, T/C was 27.8%.

And the viability, T/C (second compound 10 µM, first compound 0.0316 µM)?
Its viability, T/C is 78.9%.

And the viability, T/C (second compound 10 µM, first compound 0.1 µM)?
Its viability, T/C is 87.4%.

What about the viability, T/C (second compound 10 µM, first compound 0.316 µM) of the same compound?
Its viability, T/C is 76.1%.

And the viability, T/C (second compound 10 µM, first compound 1 µM)?
The viability, T/C was 48.2%.

And the viability, T/C (second compound 10 µM, first compound 3.16 µM)?
Its viability, T/C is 34.4%.

And the viability, T/C (second compound 10 µM, first compound 10 µM)?
The viability, T/C was 25.6%.
